This note sets out measurements from PMC5238392, “Origin of anti-tumor activity of the cysteine-containing GO peptides and further optimization of their cytotoxic properties” (Scientific Reports, 2017).

Common to all, as to type: cell-based, human
Assay [1] relates to HT-1080 cells. The assay is described as follows: H2DCFDA intracellular ROS measurement, HT-1080. The settings on record: 5 μM, 30 min after application. The protocol: Having established these premises, we repeated the measurements using the ROS-sensitive probe H2DCFDA instead of DCFDA. We have observed small, but statistically significant difference between the HT-1080 cells treated by GO-203 and control cells. Specifically, 30 min after application of the peptide the fluorescence signal from the treated cells was ca. 20% lower than the control, 82 ± 6 vs. 100 ± 7 (arbitrary units). The drop in fluorescence from cells that have been treated with GO-203 should be unequivocally attributed to the decreased level of ROS. The effect is small and unlikely to be the source of GO-203 cytotoxic activity. […] The detected drop in ROS level was below the level of statistical significance, 98 ± 3 vs. 100 ± 11 (see Fig. S3). […]
(§1) The cells were seeded into 35-mm Nunc culture dishes (Thermo Scientific, USA) at 1.2 × 10^5 cells per dish and allowed to attach for 24 h. […] After that GO-203 was added directly to the suspension and cell fluorescence was measured by flow cytometry at multiple time points during the following 2 hours. […] Cell fluorescence was then immediately measured by flow cytometry. […]
Cell fluorescence was measured using CytoFLEX (Beckman Coulter, USA) flow cytometer equipped with 3 lasers (405, 488 and 633 nm). […] Mean fluorescence intensity from 10,000 cells was acquired. […]

Assay [2] has as its system HT-1080 cells. Nature of the assay: Time-lapse microscopy and side angle light scatter, HT-1080. The protocol: The data from time-lapse microscopy on HT-1080 cells provide a visual evidence of GO-203-induced apoptosis, Fig. 5 (see also Film S1). […] After 1.5 h we observe the fully developed picture of apoptosis. This is illustrated in the right panel of Fig. 5: three cells in this photograph experience blebbing, while the fourth cell located in the upper right portion of the image has undergone detachment and rounded up (it is soon to enter the blebbing phase). This time line is confirmed by the side angle light scatter data from the flow-cytometry experiment, Fig. 6C. […] This behavior reflects the onset of dynamic blebbing and the concomitant increase in the roughness of the cell surface. In this context it is worth noting that actomyosin cortex contraction and blebbing are subsequent to (and in fact driven by) caspase activation. The condensation of nucleus and cytoplasm in apoptotic cells can also contribute to the increased side scatter.
Figure 5 Time-lapse microscopy of HT-1080 cells. (A) Cells before the addition of the peptide and (B) 1 h 20 min after the addition of 5 μM GO-203.
Figure 6 Dynamics of (A) mitochondrial membrane potential, (B) intracellular ROS levels, and (C) cell refractive properties in suspended HT-1080 cells following the addition of 5 μM GO-203.
The cells were seeded into 35-mm Nunc culture dishes (Thermo Scientific, USA) at 1.2 × 10^5 cells per dish and allowed to attach for 24 h. To monitor intracellular ROS in a time-dependent manner, the cells were incubated for 30 min with 10 μM of carboxy-H2DCFDA (Invitrogen, USA), then harvested with trypsin-EDTA and suspended in a fresh medium. After that GO-203 was added directly to the suspension and cell fluorescence was measured by flow cytometry at multiple time points during the following 2 hours. The same procedure was used for mitochondria-specific fluorescent dye Rhodamine 123 (Thermo Fisher Scientific, USA), which was added to a concentration of 5 μM. The complementary side scatter measurements were conducted using 488 nm laser light. In another series of experiments, we have used the related indicator of oxidative stress, H2DCFDA (Invitrogen, USA). The experiment started by adding GO-203 to the cell growth medium; then 10 min later 5 μM of H2DCFDA has been added. After 20 min incubations with H2DCFDA, the cells were harvested with trypsin-EDTA and suspended in a fresh medium. Cell fluorescence was then immediately measured by flow cytometry. The same procedure was followed for the ROS-insensitive (control) modification of the fluorescent probe, DCFDA.
For live cell microscopy, HT-1080 cells were seeded into 35-mm сell imaging dish with cover glass bottom (Eppendorf, Germany) and allowed to attach for 24 h. The cell response to 5 μM GO-203 exposure was monitored using the Axio Observer. […]

In assay [3] the test system is HT-1080 cells. The assay is described as follows: carboxy-H2DCFDA time-dependent intracellular ROS, HT-1080. The settings on record: suspended HT-1080; 5 μM.
Excerpt: In broad terms, apoptosis is classified into two fundamental modes: mitochondrial pathway and death receptor pathway. In the former mechanism, apoptotic signals lead to a loss of mitochondrial membrane potential, termination of mitochondrial ATP synthesis, overproduction of reactive oxygen species (ROS) and their release into cytosol along with a number of pro-apoptotic proteins that are normally confined to the intermembrane space of the mitochondria. To determine whether this mechanism is relevant for GO-203-induced cell death, we have analyzed the time variation of mitochondrial membrane potential and cellular level of ROS over the time interval of 2 h following the addition of the peptide. […] The fluorescence was measured concurrently with the side angle light scatter.
To confirm this finding we have also used the carboxy-H2DCFDA probe of the general oxidative stress. […] The results of the ROS assay in HT-1080, where the intensity of fluorescence signal reflects the level of intracellular oxidants, are shown in Fig. 6B. […]
as §1

Setting [4] is: HT-1080, 5 μM, time-lapse microscopy.

Regarding “[R]9CQCRRKN [GO-203, in clinical trials]”, the “Decrease of H2DCFDA fluorescence signal versus control” value with HT-1080 cells [1] was “ca. 20%”. In the assay with HT-1080 cells [1] (control 100 ± 7, mean and SD), the “H2DCFDA fluorescence signal (ROS level)” value is on record as 82 ± 6 arbitrary units. Further, in the assay with HT-1080 cells [2] (setting [4]), the “Time to fully developed picture of apoptosis” value amounted to 1.5 h and the “Time to morphological features of apoptosis (cell contraction, membrane blebbing)” value was “within the first hour”. The “Time at which side angle light scatter starts to rise versus control” value in the assay on HT-1080 cells [2] (suspended HT-1080 cells, 5 μM, flow cytometry, 488 nm) was found to be 30 min. Moreover, the “Onset of apoptosis after application” value in the assay with HT-1080 cells [2] (treated cells, summary statement) is “ca. 30 min”. Moreover, in the assay with HT-1080 cells [3], the “Time at which carboxy-H2DCFDA fluorescence (ROS) begins to diverge from control” value lay in the range of 80 to 90 min and the “Time at which elevated level of ROS is evident” value worked out at 120 min.
